Experimental data taken from patent US11098040B2, “Compounds and methods of use” (Ferro Therapeutics, Inc., priority 2018, dated 2021).

Experiments:
[1] = tested on: KP4; test: Cell viability assay (CellTiter Glo), pancreatic ductal adenocarcinoma KP4; assay type: cell-based, human; settings: Homo sapiens, KP-4, 96 h, pancreatic cancer cell line KP4, 96 hours, CellTiter Glo; read-out: IC50 μM KP4
Method: (§1) Cell viability assay was performed to assess the potency of the compounds in human cancer cell lines KP4 (pancreatic ductal adenocarcinoma), MiaPaCa-2 (pancreatic carcinoma), AsPC-1 (pancreatic adenocarcinoma, ascites), 143B (osteosarcoma), and SJSA-1 (osteosarcoma). Selected compounds were also assayed in a human breast epithelial cell line MCF-10A, a nontumorigenic cell line as a control to assess differential activity. Cells at a density of 500-5,000 cells/well were seeded in 96-well plates and incubated at 37° C. overnight. A series of 9 different concentrations of compound stocks (500×) were created by 3-fold serial dilution in DMSO. These compounds were further diluted in culture media and then added to cells so that the final DMSO concentration was equal to 0.25% or less. After 96 hours of incubation, 50 μL of CellTiter Glo reagent (Promega) was added to each well and luminescence was measured after 10 minutes using EnVision (PerkinElmer). Compounds titrated from top concentration of up to 30 μM. The select compounds were tested initially from 30 μM as the top concentration in duplicates (range of 4.6 nM-30 μM). […] Luminescence from cells treated with DMSO alone was set as Max and % of inhibition was calculated as follows: Inhibition %=(Max-Sample value)/Max*100. Data was analyzed using XL-fit software (ID Business Solutions Ltd.). IC50, relative IC50, or % of top inhibition was calculated.
as §1, with “in” for “in human”, “line” for “lines”, “adenocarcinoma).” for “adenocarcinoma), MiaPaCa-2 (pancreatic carcinoma), AsPC-1 (pancreatic adenocarcinoma, ascites), 143B (osteosarcoma), and SJSA-1 (osteosarcoma). Selected compounds were also assayed in a human breast epithelial cell line MCF-10A, a nontumorigenic cell line as a control to assess differential activity.”, “1,000-10,000” for “500-5,000”, “All” for “Compounds titrated from top concentration of up to 30 μM. The select”
(§2) The results of the assay on stability in blood and IC50 values for pancreatic cancer cell line KP4 are given below in Table 24.

[2] = Whole blood stability, mouse; assay type: in vitro ADME
From the text: as §2

[3] = Whole blood stability, human; assay type: in vitro ADME
From the text: as §2

SMILES	IC50 [1] [µM]	Whole Blood Stability % Remaining at 37° C. Mouse ([2]; 0 min) [%]	Whole Blood Stability % Remaining at 37° C. Mouse ([2]; 30 min) [%]	Whole Blood Stability % Remaining at 37° C. Mouse ([2]; 60 min) [%]	Whole Blood Stability % Remaining at 37° C. Human ([3]; 0 min) [%]	Whole Blood Stability % Remaining at 37° C. Human ([3]; 30 min) [%]	Whole Blood Stability % Remaining at 37° C. Human ([3]; 60 min) [%]
COC(=O)C1CCC([C@H]2c3[nH]c4ccccc4c3C[C@H](C(=O)N(C)C)N2C(=O)CCl)CC1 (stereo partly drawn) [Compound 41]	0.01 to 0.1	100.0	0.0	0.0	100.0	82.4	100.0
CN(C)C(=O)[C@H]1Cc2c([nH]c3ccccc23)[C@H](c2ccc(S(=O)(=O)C3CC3)cc2)N1C(=O)CCl [Compound 70]	0.1 to 0.5	100.0	63.3	36.6	100.0	46.0	23.8
COC(=O)c1ccc([C@H]2c3c(c4ccccc4n3C)C[C@H](C(=O)OC)N2C(=O)CCl)cc1 [Compound 72]	0.01 to 0.1	100.0	0.0	0.2	100.0	28.0	7.0
COCCN(C(=O)c1ccc([C@H]2c3[nH]c4ccccc4c3C[C@H](C(=O)N(C)C)N2C(=O)CCl)cc1)C(C)(C)C [Compound 52]	0.01 to 0.1	100.0	79.9	52.0	100.0	51.8	59.4
COC(=O)c1ccc([C@@H]2c3c(c4ccccc4n3C)C[C@H](C(=O)OC)N2C(=O)CCl)cc1 [Compound 73]	0.5 to 1	100.0	48.5	1.1	100.0	55.1	36.1

More lines, now with the values ahead:

IC50 [1] [µM]	Whole Blood Stability % Remaining at 37° C. Mouse ([2]; 0 min) [%]	Whole Blood Stability % Remaining at 37° C. Mouse ([2]; 30 min) [%]	Whole Blood Stability % Remaining at 37° C. Mouse ([2]; 60 min) [%]	Whole Blood Stability % Remaining at 37° C. Human ([3]; 0 min) [%]	Whole Blood Stability % Remaining at 37° C. Human ([3]; 30 min) [%]	Whole Blood Stability % Remaining at 37° C. Human ([3]; 60 min) [%]	SMILES
< 0.01	100.0	0.0	0.0	100.0	50.3	27.1	COC(=O)c1ccc([C@@H]2c3[nH]c4ccc(Cl)cc4c3C[C@H](C(=O)OC)N2C(=O)CCl)cc1 [Compound 94]
0.1 to 0.5	100.0	0.0	0.0	100.0	34.9	29.2	COC(=O)[C@H]1Cc2c([nH]c3ccccc23)[C@H](c2ccc(OC(=O)C(C)(C)C)cc2)N1C(=O)CCl [Compound 13]
0.01 to 0.1	100.0	68.2	48.6	100.0	60.1	44.5	CNC(=O)c1ccc([C@H]2c3[nH]c4ccccc4c3C[C@H](C(=O)OC)N2C(=O)CCl)cc1 [Compound 7]
0.01 to 0.1	100.0	0.0	0.0	100.0	82.4	43.5	COC(=O)[C@H]1Cc2c([nH]c3ccccc23)[C@H](C23CC(C(=O)OC)(C2)C3)N1C(=O)CCl [Compound 62]
